We go through five compounds from patent US20200216906A1, “METHODS AND COMPOSITIONS RELATING TO THE DIAGNOSIS AND TREATMENT OF CANCER” (PRESIDENT AND FELLOWS OF HARVARD COLLEGE, priority 2015, published 2020).

Data set [1] has as its system Panc02.13 cells expressing vector only (02.13-WT). Briefly: Kinetic cell growth assay, Panc02.13 cells expressing vector only. Format: cell-based, human. As to the method: (§1) Panc02.13 cells were used to express YAPS6A (or vector controls) under sparse and dense cultures. Expression was confirmed by confocal microscopy (data not shown). Suppression of the Hippo pathway by expression of non-phospho, active form of YAP (YAPS6A) sensitized pancreatic cancer cells to gemcitabine and 5-FU (FIGS. 6 and 7). Apoptosis was measured by immunobloting with cleaved caspases 3/7 or PARP. Blots were also stained with anti-β-actin for loading control. The effect of Hippo pathway suppression on gemcitabine and 5-FU senstitization was maintained in 3D spheroid culture (FIG. 8). The effects of eleven cytotoxic drugs on the growth of Panc02.13 cells expressing vector only or YAPS6A construct grown under low or high densities were determined (Table 1).
(§2) The effect of gemcitabine on pancreatic cancer cell growth was studied using a kinetic cell growth assay. Pancreatic cancer cells were plated on 96-well plates (Essen ImageLock, Essen Instruments, MI, US) at varying densities (2-4×10^3 for low density or 15-20×10^3 for high density experiments). Small molecule inhibitors at different doses were added 24 hours after plating and cell confluence was monitored with Incucyte Live-Cell Imaging System and software (Essen Instruments). Confluence was observed every hour for 48-144h or until the control (DMSO only) samples reached 100% confluence.
as §2, with “Kinetic Cell growth assay. The” for “The”, “(2-4X103” for “(2-4×10^3”, “15-20X103” for “15-20×10^3”, “Incucyte™” for “Incucyte”

Data set [2] deals with T1, ABCG2 (Homo sapiens, UniProt Q9UNQ0).
T1 sequence (Q9UNQ0 1-655): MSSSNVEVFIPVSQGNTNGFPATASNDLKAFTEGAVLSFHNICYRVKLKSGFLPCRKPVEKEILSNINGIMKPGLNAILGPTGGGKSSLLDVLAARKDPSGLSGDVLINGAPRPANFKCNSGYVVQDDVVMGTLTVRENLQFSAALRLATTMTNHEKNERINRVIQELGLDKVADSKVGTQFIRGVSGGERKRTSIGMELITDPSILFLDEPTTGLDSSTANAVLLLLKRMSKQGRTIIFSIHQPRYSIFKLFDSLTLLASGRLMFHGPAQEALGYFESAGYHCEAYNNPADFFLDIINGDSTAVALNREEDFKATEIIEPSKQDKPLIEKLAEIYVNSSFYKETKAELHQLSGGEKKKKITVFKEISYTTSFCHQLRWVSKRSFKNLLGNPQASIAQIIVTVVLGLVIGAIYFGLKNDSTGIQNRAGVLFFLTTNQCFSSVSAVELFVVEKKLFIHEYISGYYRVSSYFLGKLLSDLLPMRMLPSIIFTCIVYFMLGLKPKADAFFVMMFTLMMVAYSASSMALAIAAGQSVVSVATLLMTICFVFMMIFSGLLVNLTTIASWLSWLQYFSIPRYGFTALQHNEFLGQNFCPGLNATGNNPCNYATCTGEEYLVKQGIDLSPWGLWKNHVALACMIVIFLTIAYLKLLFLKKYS
The following applies: Cusatis and Sparreboom, 2008; cited from earlier work.

In data set [3] the test system is Panc02.13 cells expressing YAPS6A construct. The data set can be described thus: Kinetic cell growth assay, Panc02.13 cells expressing YAPS6A. Format: cell-based, human. Conditions: YAPS6A construct. The procedure: as §1, §2
Cell lines (Panc02.13, Panc10.05 or Miapaca2) were transfected with YAPS6A constructs (Addgene) using Lipofectamine™ (Invitrogen, Carlsbad, Calif.) following the manufacturer's instructions and 48 hour post-transfection selected in 5-10 μg/ml Blasticidin (InvivoGen, San Diego, Calif.). The clones screened for YAPS6A expression by Western blot. Stable cell lines were maintained in complete medium and 5 μg/ml Blasticidin.
as §2, with “Kinetic Cell growth assay. The” for “The”, “(2-4X103” for “(2-4×10^3”, “15-20X103” for “15-20×10^3”, “Incucyte™” for “Incucyte”

Data set [4] concerns Panc02.13 cells expressing the YAPS6A mutant. The data set can be described thus: 3D spheroid growth assay, Panc02.13 cells expressing YAPS6A. Format: cell-based, human. The following applies: YAP activity increased.
The test system of data set [5] is patient-derived xenograft (PDX) models. The data set can be described thus: Patient-derived xenograft (PDX) models, tumor growth inhibition. Format: in vivo, mouse. The following applies: PDX models. From the text: An alternative to an endogenous mouse models for capturing effects of the tumor environment are patient-derived xenograft (PDX) models. […] At the cellular level, PDX models also preserve the intra-tumoral heterogeneity, as well as the molecular characteristics of the original cancer, including copy number variants, single-nucleotide polymorphisms, and gene expression profiles (Choi et al., 2014; DeRose et al., 2011). […] When patient-derived xenograft PDX models were used to assess whether YAP activation sensitizes solid tumors to gemcitabine significant effects were found. The studies were performed in the following manner: Tumor fragments (around 64 mm^3) were implanted into the flanks of recipient mice and tumor dimensions recorded with digital calipers. Once tumor implants reached a volume of approximately 200 mm3, dosing with gemcitabine (or vehicle control) began. At the completion of the study completion, the percent tumor growth inhibition (% TGI) was calculated for gemcitabine (G) and the vehicle control (C) using initial (i) and final (f) tumor measurements by the formula: % TGI=[1−(Gf−Gi)/(Cf−Ci)]x100.
Patient-derived xenograft (PDX) models. PDX models were established by Champions Oncology (Baltimore, Md.) as described previously (Khor et al., 2015). Drug response to 20 PDX models was obtained from Champions TumorGraft® Database (available on the world wide web at database.championsoncology.com/).
Immunohistochemistry. Human primary tumor tissue slides were obtained from Champions Oncology (Baltimore, Md.). Immunohistochemistry using anti YAP1 antibody (Abcam Cat # ab52771) was performed as previously described (Shi et al., 1999). For negative controls, primary antibody was omitted. The intensity of YAP staining was assessed by an independent pathologist using a four-grade scale: “0” is negative. “0.5” is borderline staining with no significance. “1” is weak staining. “1.5” is weak staining with foci of moderate staining. “2” is moderate staining. […] YAP scoring index was calculated based on staining intensity * % of positive target cells.
(In general: A xenograft is tissue or cells of one species grown in another, often human tumour cells in immunodeficient mice.)

In data set [6] the test system is Panc02.13 cells. The data set can be described thus: 3D spheroid growth assay, Panc02.13 (GFP/parental) cells. The following applies: Hippo-YAP pathway active.
Procedure: Cancer cell lines were seeded at a 5×10^3 cells per well in a 96-well ultra-low adherence plates (Costar) and briefly spun down at 1000 rpm for 5 minutes. After 2 days, cells were treated with small molecule inhibitors at varying concentrations. Growth of spheroids was monitored using live cell imaging every 2-3 hours for 4-7 days in the Incucyte FLR™ system (Essen) or as end point assay using CellTiter-Glo™ luminescent cell viability assay (Promega).
A dose response curve for each inhibitor is calculated based on control (no inhibitor/DMSO) treated wells.
Cancer cell lines were seeded at a 5×10^3 cells per well in a 96-well ultra-low adherence plates (Costar) and briefly spun down at 1000 rpm for 5 minutes. After 2 days, cells were treated with small molecule inhibitors at varying concentrations. Growth of spheroids was monitored using live cell imaging every 2-3 hours for 4-7 days in the Incucyte ZOOM™ system (Essen) or as end point assay using CellTiter-Glo™ luminescent cell viability assay (Promega).
The test system of data set [7] is Panc02.13 cells expressing YAPS6A. Briefly: Gemcitabine and dFdU efflux by LC-MS/MS, Panc02.13 YAPS6A vs GFP. Format: in vitro ADME, human. Conditions: less efflux in YAPS6A after gemcitabine treatment, p<0.05. From the text:
It was considered whether the Hippo pathway might affect the efflux of gemcitabine and/or its metabolites. To assess directly gemcitabine efflux in conditioned media of pancreatic cancer cells both radiolabeled gemcitabine and LC-MS/MS-based methods were used. Panc02.13 cells grown in highly crowded conditions (Hippo-ON) pumped out 2-3-fold more radiolabeled gemcitabine (counts per μg protein) compared with cells grown in less crowded conditions (Hippo-OFF) (FIG. 22A). Another pathway of inactivation and export is the enzymatic conversion of gemcitabine to a uracil derivative (2′,2′-difluorodeoxyuridine, dFdU) by deamination catalyzed by cytidine deaminase (CDA)(Veltkamp et al., 2008). The efflux of gemcitabine and its deaminated metabolite, dFdU was measured by LC-MS/MS (24) in Panc02.13 cells expressing YAPS6A or vector control after gemcitabine treatment (FIG. 22B).

In data set [8] the test system is Miapaca2-YAPS6A xenografts. Briefly: Mouse xenograft, Miapaca2-YAPS6A. Format: in vivo. The following applies: LC-MS/MS, p<0.01. As to the method:
To assess the gemcitabine response to Hippo pathway inactivation in tumors a mouse xenograft model of pancreatic carcinoma cells and patient-derived xenograft (PDX) models from a variety of solid tumors including human cancers from non-small cell lung, esophagus, breast, mesothelium, ovary, colon, head and neck, sarcoma, and cholangiocarcinoma were used (FIG. 30). In mouse xenograft studies, two human pancreatic cancer cell lines (Miapac2 and Panc02.13) expressing GFP or YAPS6A were injected into athymic mice. Both parental or GFP expressing cells grew rapidly, producing palpable tumors in 5-10 days. When the tumors were ˜200 mm^3 (as measured using a caliper), mice were randomized into treatment and control groups. The […] received i.p. saline injections on alternate days for two weeks, and the latter received gemcitabine (20 mg/kg in Miapaca2-YAPS6A and 50 mg/Kg in Panc02.13-YAPS6A cohorts).
Tumorigenicity in Nude Mice. All in vivo experiments were performed using 6-week-old to 8-week-old athymic nude mice. Mice were maintained in laminar flow rooms with constant temperature and humidity. Miapaca2 or Panc02.13 cells were inoculated subcutaneously (s.c.) into each flank of the mice. Cells (2×10^6 in suspension) were injected on day 0, and tumor growth was followed every 2 to 3 days by tumor diameter measurements using vernier calipers. Tumor volumes (V) were calculated using the formula: V=AB2/2 (A, axial diameter; B, rotational diameter). When the outgrowths were • 200 mm^3, mice were divided at random into two groups (control and treated, n=3-8). The treated group received gemcitabine injection or saline control on alternate days (MWF) for 2 weeks.
Intra-tumor gemcitabine measurements.

Data set [9] has as its system H2052 (LATS2) cells. The data set can be described thus: Gemcitabine and dFdU efflux by LC-MS/MS, H2052 cells. Format: in vitro ADME. Conditions: higher in H2052 (LATS2). The source says: Are defects in the Hippo pathway the major cause of gemcitabine sensitivity? […] Restoring the levels of LATS2 in H2052 cells caused an increase in the mRNA and proteins levels of ABCG2 and CDA (FIGS. 23C, 36A-36M).

Structures are written as SMILES. Like-named read-outs stand apart in the source and are kept apart here.

`COc1cc([C@@H]2c3cc4c(cc3[C@@H](O[C@@H]3O[C@@H]5CO[C@@H](C)O[C@H]5[C@H](O)[C@H]3O)[C@H]3COC(=O)[C@H]23)OCO4)cc(OC)c1O` [Etoposide]: the EC50 (commonly the concentration needed to bring the measured effect to its halfway point) in data set [1] (Homo sapiens, high density, read-out: High density (EC50, nM) 02.13-WT) was 2600 nM; in data set [1] (Homo sapiens, low density, read-out: Low density (EC50, nM) 02.13-WT), 386 nM; in data set [3] (Homo sapiens, high density, read-out: High density (EC50, nM) 02.13-YAPS6A), 942 nM; in [3] (Homo sapiens, low density, read-out: Low density (EC50, nM) 02.13-YAPS6A) it was 383 nM. Further, in [2], the “Substrate of ABCG2” value is on record as “substrates of ABCG2”. Further, the “Efficacy in inhibiting cell growth when the Hippo pathway was inhibited” value in data set [4] was “particularly significant inhibitory activity”; in data set [4] (listed as etopiside), “increased efficacy in inhibiting cell growth”.

For `N.N.[Cl][Pt][Cl]` [Cisplatin], the half-maximal effective concentration (EC50) in data set [1] (high density, read-out: High density (EC50, nM) 02.13-WT) is above 10000 nM; in [1] (low density, read-out: Low density (EC50, nM) 02.13-WT), above 10000 nM; in data set [3] (high density, read-out: High density (EC50, nM) 02.13-YAPS6A), above 10000 nM; in data set [3] (low density, read-out: Low density (EC50, nM) 02.13-YAPS6A), above 10000 nM. Also, the “% TGI dependence on YAP activity” value in [5] is reported as “not affected by YAP activity”.

Consider `COc1cccc2c1C(=O)c1c(O)c3c(c(O)c1C2=O)C[C@@](O)(C(=O)CO)C[C@@H]3O[C@H]1C[C@H](N)[C@@H](O)[C@H](C)O1` [epirubicin], for which the “Efficacy in inhibiting cell growth when the Hippo pathway was not inhibited” value in [6] is “efficacious in inhibiting cell growth”. Moreover, the “Substrate of ABCG2” value in data set [2] is “substrates of ABCG2”. The “Efficacy in inhibiting cell growth when the Hippo pathway was inhibited” value in data set [4] is “increased efficacy in inhibiting cell growth”.

For `N.N.O=C([O-])C1(C(=O)[O-])CCC1.[Pt+2]` [carboplatin], the “% TGI dependence on YAP activity” value in data set [5] is “not affected by YAP activity”.

Take `O=c1ccn([C@@H]2O[C@H](CO)[C@@H](O)C2(F)F)c(=O)[nH]1` [dFdU, 2′,2′-difluorodeoxyuridine]: in data set [7], the “dFdU effluxed, YAPS6A vs GFP expressing cells” value is recorded as 5 fold. Besides, in [8], the “Reduction in intra-tumor accumulation of dFdU vs parental control xenografts” value was above 4 fold. In addition, in data set [9], the “Effluxed dFdU in media, H2052 (LATS2) vs parental H2052 (LATS2−/−)” value is recorded as 2-3 fold.
